Test results published in PubChem BioAssay AID1117327 (Cheminformatics & Chemogenomics Research Group (CCRG), …, 2015).
Where “and” joins values, the source holds several entries; their conditions need not be identical. Equal entries are not always repeated. Calls of active or inactive are those of the source. How the calls were made is not given here. Starred links: 1 amine or outer side, 2 acyl side, 3 side chain; linkers in the order of their positions; H or OH if unused. Positions of bridges follow the written chain, without caps; N, C: chain ends. Non-standard residues stand in square brackets, D forms with d. Residues, ends and D or L forms follow the SMILES beside them. Chains are numbered I, II in the order given. Actinocin(9to1) = Cc1c2oc3c(C)ccc(C(=O)[*:1])c3nc-2c(C(=O)[*:2])c(N)c1=O; NMeV = CN[C@H](C(=O)O)C(C)C; Sar = CNCC(=O)O

System: C2C12 + WNT3A conditioned medium, alkaline phosphatase
Experiment: alkaline phosphatase induction in C2C12 cells, dose response, cell-based, WNT3A-conditioned medium (AID 1117327)

O=C1c2c(O)ccc(O)c2C(=O)c2c(NCCNCCO)ccc(NCCNCCO)c21
IC50: 1.51 µM

Cc1ccc([N+](=O)[O-])[c]2c1[O][Hg]2
IC50: 0.155 µM

COc1ccc2cc1Oc1ccc(cc1)C[C@H]1c3c(cc4c(c3Oc3cc5c(cc3OC)CCN(C)[C@@H]5C2)OCO4)CCN1C
IC50: 2.05 µM

O=[N+]([O-])c1ccc(O)c2ncccc12
IC50: 6.36 µM (inactive)

NC(N)=NN=C(/C=C/c1ccc([N+](=O)[O-])o1)/C=C/c1ccc([N+](=O)[O-])o1
IC50: 0.372 µM

CC(C)C[C@H](NC(=O)[C@H](CCc1ccccc1)NC(=O)CN1CCOCC1)C(=O)N[C@@H](Cc1ccccc1)C(=O)N[C@@H](CC(C)C)C(=O)[C@@]1(C)CO1
IC50: 0.0152 µM

CC(=O)Oc1ccc(C2(c3ccc(OC(C)=O)cc3)Oc3ccccc3NC2=O)cc1
IC50: 14 µM (inactive)

Cc1nc(N)nc(N)c1-c1ccc(Cl)c(Cl)c1
IC50: 0.0299 µM

Cc1ccc2c(Br)cc(Br)c(O)c2n1
IC50: > 20 µM (inactive)

COC(=O)[C@H]1[C@H]2C[C@@H]3c4[nH]c5cc(OC)ccc5c4CCN3C[C@H]2C[C@@H](OC(=O)/C=C/c2ccc(O)c(OC)c2)[C@@H]1OC
IC50: 10.4 µM (inactive)

CCCCCCCCCCCC(=O)[O][Sn]([CH2]CCC)([CH2]CCC)[O]C(=O)CCCCCCCCCCC
IC50: > 20 µM (inactive)

CCCOc1ccc2nc(NC(=O)OC)[nH]c2c1
IC50: 0.0881 µM

CSc1ccc2c(c1)C(N1CCN(C)CC1)Cc1ccccc1S2 (centres undefined)
IC50: > 20 µM (inactive)

CC[C@@H]([C@H](C)O)n1ncn(-c2ccc(N3CCN(c4ccc(OC[C@@H]5CO[C@@](Cn6cncn6)(c6ccc(F)cc6F)C5)cc4)CC3)cc2)c1=O
IC50: 1.63 µM

CN(C)CCCN1c2ccccc2Sc2ccc(C(F)(F)F)cc21
IC50: > 20 µM (inactive)

CC[C@]1(O)C[C@@H]2CN(CCc3c([nH]c4ccccc34)[C@@](C(=O)OC)(c3cc4c(cc3OC)N(C)[C@H]3[C@@](O)(C(=O)OC)[C@H](OC(C)=O)[C@]5(CC)C=CCN6CC[C@]43[C@@H]65)C2)C1
IC50: > 20 µM (inactive) and 8.9 nM

COC(=O)c1nc(Cl)c(Cl)nc1N
IC50: 0.157 µM

O=C1OC2(c3cc(Br)c(O)cc3Oc3c2cc(Br)c(O)[c]3[Hg])c2ccccc21 (centres undefined)
IC50: > 20 µM (inactive)

Cc1cc2c(C(C)C)c(O)c(O)c(C=O)c2c(O)c1-c1c(C)cc2c(C(C)C)c(O)c(O)c(C=O)c2c1O
IC50: > 20 µM (inactive)

CCCCCCNC(=O)n1cc(F)c(=O)[nH]c1=O
IC50: 5.55 µM (inactive)

C[n+]1c2cc(N)ccc2cc2ccc(N)cc21 (tested in a mixture with another compound)
IC50: 1.6 µM

CN(Cc1cnc2nc(N)nc(N)c2n1)c1ccc(C(=O)N[C@@H](CCC(=O)O)C(=O)O)cc1
IC50: 0.0116 µM

CCCCc1ccc2nc(NC(=O)OC)[nH]c2c1
IC50: 0.0682 µM

Clc1cc(Cl)c(OCC#CI)cc1Cl
IC50: > 20 µM (inactive)

C=C(C)[C@H]1Cc2c(ccc3c2O[C@@H]2COc4cc(OC)c(OC)cc4[C@@H]2C3=O)O1
IC50: 0.254 µM

CCCCCCCCCCOCC(O)CN (centres undefined)
IC50: > 20 µM (inactive)

C#C[C@]1(O)CC[C@H]2[C@@H]3CCc4cc(OC5CCCC5)ccc4[C@H]3CC[C@@]21C
IC50: > 20 µM (inactive)

COc1cccc2c1C(=O)c1c(O)c3c(c(O)c1C2=O)C[C@@](O)(C(=O)CO)C[C@@H]3O[C@H]1C[C@H](N)[C@H](O[C@@H]2CCCCO2)[C@H](C)O1
IC50: 3.95 µM

CCc1nc(N)nc(N)c1-c1ccc(Cl)cc1
IC50: 0.0677 µM

CCCN(CCC)C(=O)C(CCC(=O)OCCCN1CCN(CCOC(=O)Cc2c(C)n(C(=O)c3ccc(Cl)cc3)c3ccc(OC)cc23)CC1)NC(=O)c1ccccc1 (centres undefined)
IC50: 13.2 µM (inactive)

CCN(CC)CCNc1ccc(CO)c2sc3ccccc3c(=O)c12
IC50: 2.67 µM

CN(C)c1ccc(C(=C2C=CC(=[N+](C)C)C=C2)c2ccccc2)cc1
IC50: 0.363 µM

Cc1ccc2nc(N)[nH]c(=O)c2c1Sc1ccncc1
IC50: 0.244 µM

COc1cc(NCc2ccc3nc(N)nc(N)c3c2C)cc(OC)c1OC
IC50: > 20 µM (inactive)

COc1cc([C@@H]2c3cc4c(cc3[C@@H](O[C@@H]3O[C@@H]5CO[C@@H](C)O[C@@H]5[C@H](O)[C@@H]3O)[C@H]3COC(=O)[C@H]23)OCO4)cc(OC)c1O
IC50: > 20 µM (inactive)

CCCCC1C(=O)N(c2ccccc2)N(c2ccc(O)cc2)C1=O (centres undefined)
IC50: 4.92 µM

NC(=NCCCCCCN=C(N)/N=C(\N)Nc1ccc(Cl)cc1)/N=C(\N)Nc1ccc(Cl)cc1
IC50: > 20 µM (inactive)

COC(=O)Nc1nc2ccc(C(=O)C3CC3)cc2[nH]1
IC50: 0.684 µM

c1ccc2c(c1)Sc1ccccc1N2CC1CN2CCC1CC2 (centres undefined)
IC50: > 20 µM (inactive)

Cc1c2oc3c(C)ccc(C(=O)N[C@@H]4C(=O)N[C@H](C(C)C)C(=O)N5CCC[C@H]5C(=O)N(C)CC(=O)N(C)[C@@H](C(C)C)C(=O)O[C@@H]4C)c3nc-2c(C(=O)N[C@@H]2C(=O)N[C@H](C(C)C)C(=O)N3CCC[C@H]3C(=O)N(C)CC(=O)N(C)[C@@H](C(C)C)C(=O)O[C@@H]2C)c(N)c1=O (I: T[dV]P[Sar][NMeV] / II: T[dV]P[Sar][NMeV]; ester I:1-I:C, II:1-II:C; linker I:N-II:N via Actinocin(9to1))
IC50: 0.0015 µM

Cc1ccccc1C(=O)Nc1ccc(C(=O)N2CCCC(N(C)C)c3ccccc32)cc1 (centres undefined)
IC50: 9.98 µM (inactive)

CC(=O)[C@]1(O)Cc2c(O)c3c(c(O)c2[C@@H](O[C@H]2C[C@H](N)[C@H](O)[C@H](C)O2)C1)C(=O)c1ccccc1C3=O
IC50: 0.504 µM

COc1cc([C@@H]2c3cc4c(cc3[C@H](O)[C@H]3COC(=O)[C@H]23)OCO4)cc(OC)c1OC
IC50: 0.0091 µM

CC[C@@]1(O)C(=O)OCc2c1cc1n(c2=O)Cc2c-1nc1ccccc1c2/C=N/OC(C)(C)C
IC50: 0.0032 µM

Cc1nc(Nc2ncc(C(=O)Nc3c(C)cccc3Cl)s2)cc(N2CCN(CCO)CC2)n1
IC50: 0.0067 µM

CCCCCCCCCCCCNCCNCCNCC(=O)O
IC50: > 20 µM (inactive)

C[C@@]12C(=O)OC(=O)[C@]1(C)C1CCC2O1
IC50: 1.49 µM

CC[C@]1(O)C[C@H]2CN(CCc3c([nH]c4ccccc34)[C@@](C(=O)OC)(c3cc4c(cc3OC)N(C=O)[C@H]3[C@@](O)(C(=O)OC)[C@H](OC(C)=O)[C@]5(CC)C=CCN6CC[C@]43[C@@H]65)C2)C1
IC50: 0.0051 µM

CC[C@@]1(O)C(=O)OCc2c1cc1n(c2=O)Cc2cc3c(CN(C)C)c(O)ccc3nc2-1
IC50: 0.0179 µM

CCCCCCCCCCCCCC[N+](C)(C)C
IC50: > 20 µM (inactive)

COC(=O)Nc1nc2ccc(Sc3ccccc3)cc2[nH]1
IC50: 0.438 µM

COC(=O)Nc1nc2ccc(C(=O)c3ccccc3)cc2[nH]1
IC50: 0.245 µM

COc1cccc2c1C(=O)c1c(O)c3c(c(O)c1C2=O)C[C@@](O)(C(=O)CO)CC3OC1CC(N2CCOC(OC)C2)C(O)C(C)O1 (some centres undefined)
IC50: > 20 µM (inactive)

Cc1cc(=O)c2c(O)c3c(O)cc(=O)c4c3c3c(cc(O)c1c23)C(C)(C)C=4O
IC50: 2.91 µM

CCCCCCCCCCCCCCC[C@H](O)[C@@H](N)CO
IC50: > 20 µM (inactive)

CCC1=C[C@@H]2CN(C1)Cc1c([nH]c3ccccc13)[C@@](C(=O)OC)(c1cc3c(cc1OC)N(C)[C@H]1[C@@](O)(C(=O)OC)[C@H](OC(C)=O)[C@]4(CC)C=CCN5CC[C@]31[C@@H]54)C2
IC50: 0.0101 µM

O=C1C2CC=CCC2C(=O)N1SC(Cl)(Cl)Cl (centres undefined)
IC50: 0.511 µM

CCCCCCCCCCCCCC[N+](C)(C)Cc1ccccc1
IC50: > 20 µM (inactive)

C=CC(=O)Nc1cc2c(Nc3ccc(F)c(Cl)c3)ncnc2cc1OCCCN1CCOCC1
IC50: 9.46 µM (inactive)

CCCSc1ccc2nc(NC(=O)OC)[nH]c2c1
IC50: 12.3 µM (inactive)

Oc1c(Cl)cc(Cl)cc1Sc1cc(Cl)cc(Cl)c1O
IC50: > 20 µM (inactive)

COc1cccc2c1C(=O)c1c(O)c3c(c(O)c1C2=O)C[C@@](O)(C(C)=O)C[C@@H]3O[C@H]1C[C@H](N)[C@H](O)[C@H](C)O1
IC50: 0.0061 µM

COC(=O)Nc1nc2ccc(S(=O)c3ccccc3)cc2[nH]1 (centres undefined)
IC50: 0.559 µM

Cc1cc(CC(C)CC(C)(C)C)n(O)c(=O)c1 (centres undefined)
IC50: > 20 µM (inactive)

CN1C[C@H](CNC(=O)OCc2ccccc2)C[C@@H]2c3cccc4c3c(cn4C)C[C@H]21
IC50: > 20 µM (inactive)

O=[N+]([O-])C(Br)(CO)CO
IC50: > 20 µM (inactive)

Cc1cc(O)c2ccccc2c1O
IC50: 1.75 µM

Cc1cc(C2CCCCC2)n(O)c(=O)c1
IC50: 1.05 µM

OCCN1CCN(CCCN2c3ccccc3Sc3ccc(Cl)cc32)CC1
IC50: > 20 µM (inactive)

O=C(CCl)c1ccc(Cl)cc1Cl
IC50: > 20 µM (inactive)

O=C1C(I)=CC(=C(c2cc(I)c(O)c(I)c2)c2ccccc2C(=O)O)C=C1I
IC50: > 20 µM (inactive)

O[C@@H](c1cc(C(F)(F)F)nc2c(C(F)(F)F)cccc12)[C@H]1CCCCN1
IC50: > 20 µM (inactive)

Oc1c(I)cc(Cl)c2cccnc12
IC50: 5.4 µM (inactive)

Nc1ccc2cc3ccc(N)cc3nc2c1
IC50: > 20 µM (inactive)

Cc1nc2ccc(CN(C)c3ccc(C(=O)N[C@@H](CCC(=O)O)C(=O)O)s3)cc2c(=O)[nH]1
IC50: 0.0042 µM

COC(=O)Nc1nc2ccc(C(=O)c3cccs3)cc2[nH]1
IC50: 0.0434 µM

O=c1c(-c2ccccc2)c1-c1ccccc1
IC50: 3.62 µM

COc1cc(C=C2CCC/C(=C\c3ccc(O)c(OC)c3)C2=O)ccc1O
IC50: > 20 µM (inactive)

[O-][n+]1ccccc1SSc1cccc[n+]1[O-]
IC50: 0.131 µM

CC(C)(C)C(=O)OCOP(=O)(COCCn1cnc2c(N)ncnc21)OCOC(=O)C(C)(C)C
IC50: 0.387 µM

COCc1c(C(C)C)nc(C(C)C)c(/C=C/[C@@H](O)C[C@@H](O)CC(=O)O)c1-c1ccc(F)cc1
IC50: > 20 µM (inactive)

CN1CC[C@H](c2c(O)cc(O)c3c(=O)cc(-c4ccccc4Cl)oc23)[C@H](O)C1
IC50: 0.461 µM

CN(C)C(=S)SSC(=S)N(C)C
IC50: > 20 µM (inactive)

O=C(Nc1ccc([N+](=O)[O-])cc1Cl)c1cc(Cl)ccc1O
IC50: > 20 µM (inactive)
